Measurements reported in patent publication US5204361A, “Method for treating laminitis in equine livestock” (priority 1988, dated 1993).
Like-named read-outs stand apart in the source and are kept apart here.

What was measured:
[1] = tested on: caecal/large colon digesta; test: Experiment 2 Part 5: efficacy of tylosin relative to virginiamycin, digesta incubated with glucose; type: cell-based, horse; details: for L-lactate: digesta incubated with glucose, 37°, 20 hours, mean
Protocol: An in vitro fermentation experiment was conducted to determine the efficacy of tylosin relative to virginiamycin. Samples of strained caecal and large colon digesta (16 ml) were incubated with glucose solution (60 ug/ml) (4 ml) and varying concentrations of either tylosin or virginiamycin representing […], 2.0, 4.0 ug of tylosin or virginiamycin per ml. The 25 ml containers were incubated at 37° for 20 hours. There were three replicates per treatment.

[2] = tested on: caecal/large colon digesta; test: as above; type: cell-based, horse; details: antibiotic 1.00 μg/ml, 37°, 20 hours, mean
cattle = details: Nagaraja et al. (1981); cited from earlier work
horses = details: cited from earlier work
[3] = tested on: mixed caecal/large colon digesta; test: Experiment 2 Part 1: in vitro fermentation of digesta with cornstarch, avoparcin, virginiamycin, flavomycin 2-32 ug/ml; type: cell-based, horse; design: Lactate / Total VFA: unit not given here; details: for pH / Acet:Prop / Lactate / Total VFA / control of lactic acid build-up: cornstarch 15 mg/ml; for pH / Acet:Prop / Lactate / Total VFA: mean
Protocol: (§1) Digesta was taken from the caecum and large colon from recently slaughtered animals and was filtered through nylon gauze (approximately 60 micron apertures). The fluid was diluted 1:1 with a buffer solution described by Bales et al. (1976) and incubated with wheat "corn starch" (with or without antibiotics) at 37° for 16 to 20 hours. Aliquots of digesta diluted with buffer (50 ml) were added to 100 ml conical flasks. The flasks were flushed with carbon dioxide before being sealed with a tightly fitting rubber cap. A 21 gauge needle was inserted through the rubber seal in order to allow gas to escape during the fermentation. On removal from the incubator sub-samples were immediately taken to measure L-lactic acid concentration and pH. For each treatment or level of antibiotic three replicate incubation flasks were used.
A range of concentrations of cornstarch providing: 0, 5, 10, 15 and 20 mg/ml diluted digesta (i.e. from 0 to 1 g cornstarch/conical flask) were tested to determine the amount required to produce a pattern of fermentation with high levels of lactic acid. Flasks were also prepared with cornstarch mixed with antibiotic premixes to provide 15 mg cornstarch/ml incubation mixture and 0, 2, 4, 8, 16 and 32 ug of avoparcin, virginiamycin or flavomycin per ml incubation mixture. After approximately 16 hour incubation at 37° samples were taken to measure lactic acid, VFA and pH.

[4] = tested on: caecal and large colon contents; test: Experiment 2 Part 3: in vitro screening at 2 ug/ml in digesta of four horses; type: cell-based, horse; details: 2 ug antibiotic/ml, 15 mg cornstarch/ml, 20 hour incubation
Protocol: as §1
All four of the antibiotics, listed above, were incubated as previously described to provide 2 ug antibiotic and 15 mg cornstarch per ml incubation mixture. There was one flask per test and each antibiotic was incubated in digesta from both the caecum and the large colon taken from each of 4 animals. Samples of incubation fluid were taken following a 20 hour incubation and were analysed for L-lactate and pH.

[5] = tested on: horses dosed with 15 g wheat/kg liveweight; details: for D-lactic acid, caecum / D-lactic acid, large colon / L-lactic acid, large colon / Lameness (Obel grade): avoparcin 120 mg/kg wheat; for D-lactic acid, caecum / D-lactic acid, large colon / L-lactic acid, large colon: 24 hours after wheat; for Lameness (Obel grade): within 24 hours of wheat
Protocol: Four horses were dosed with 15 g wheat/kg liveweight. The wheat given to two of the animals contained 120 mg avoparcin/kg wheat, and the other two animals received the wheat without medication. Animals were examined prior to dosing and at intervals of eight hours after the dosing for a period of 24 hours. At these times temperature and heart rate were measured, and a sample of venous blood was taken for the measurement of pH, blood gases, bicarbonate, D-lactate and L-lactate. Animals were also examined for any signs of lameness according to the criteria of Obel (1948) as summarized by Garner et al (1977). After 24 hours all animals were slaughtered and samples of digesta were taken from the caecum and large colon for analysis of lactic acid, VFA and avoparcin concentration.

sheep = details: cited from earlier work
[6] = tested on: caecal/large colon digesta; test: Experiment 2 Part 2: in vitro fermentation with cornstarch, antibiotics at or below 2 ug/ml; type: cell-based, horse; details: cornstarch 0.75 g per flask, 16 hours, mean
Protocol: as §1
Incubation flasks were set up as described above with cornstarch (0.75 g) containing virginiamycin, flavomycin or zinc-bacitracin a levels to provide: 0, 0.25, 0.5, 1.0 and 2 ug antibiotic/ml incubation mixture. These flasks were incubated for 16 hours. Flasks were also set up with 0.75 g cornstarch and no antibiotic equipped with a tap and sampling tube in order to take samples from the incubation vessels at various times during the fermentation. Samples were taken at the start of the incubation and at 2, 4, 6, 8, 12 and 24 h. These were analysed for L-lactate concentration and pH.

[7] = antibiotic 2 μg/ml, approx 16 hour incubation at 37°
[8] = antibiotic 2 μg/ml, approx 16 hour incubation
[9] = antibiotic 4 μg/ml, approx 16 hour incubation
[10] = antibiotic 8 μg/ml, approx 16 hour incubation
[11] = antibiotic 16 μg/ml, approx 16 hour incubation
[12] = antibiotic 32 μg/ml, approx 16 hour incubation
[13] = Horse 1, mean of caecum and large colon
[14] = Horse 2, mean of caecum and large colon
[15] = Horse 3, mean of caecum and large colon
[16] = Horse 4, mean of caecum and large colon

## CC[C@H]1OC(=O)C[C@@H](O)[C@H](C)[C@@H](O[C@@H]2O[C@H](C)[C@@H](O[C@H]3C[C@@](C)(O)[C@@H](O)[C@H](C)O3)[C@H](N(C)C)[C@H]2O)[C@@H](CC=O)C[C@@H](C)C(=O)/C=C/C(C)=C/[C@@H]1CO[C@@H]1O[C@H](C)[C@@H](O)[C@@H](OC)[C@H]1OC [Tylosin, tylosin]
[1]; antibiotic 0.50 μg/ml
  L-lactate: 122 mmol/L
[1]; antibiotic 2.00 μg/ml
  L-lactate: 38.7 mmol/L
[1]; antibiotic 4.00 μg/ml
  L-lactate: 11.7 mmol/L
[1]; at the concentrations used (0.5-4 ug/ml)
  reduction in lactic acid levels compared with virginiamycin: did not cause the same reduction
[1]; higher levels of tylosin than virginiamycin required for similar reduction
  concentration of lactic acid during the fermentation of soluble carbohydrate: can reduce the concentration of lactic acid
[2]
  L-lactate: 45.1 mmol/L

## CC[C@@H](C(=O)[C@@H](C)[C@@H](O)[C@H](C)CCc1ccc(C)c(O)c1C(=O)O)[C@H]1O[C@](CC)([C@H]2CC[C@](O)(CC)[C@H](C)O2)C[C@@H]1C [lasalocid]
cattle
  control of lactic acidosis: lactic acidosis could be controlled

## CC[C@@]1([C@@H]2O[C@@H]([C@H]3O[C@@](O)(CO)[C@H](C)C[C@@H]3C)C[C@@H]2C)CC[C@H]([C@]2(C)CC[C@]3(C[C@H](O)[C@@H](C)[C@@H]([C@@H](C)[C@@H](OC)[C@H](C)C(=O)O)O3)O2)O1 [monensin]
cattle
  control of lactic acidosis: lactic acidosis could be controlled
horses
  toxicity on the host: highly toxic

## avoparcin
[3]; [7]
  pH: 6.14
[3]; [8]
  Acet:Prop: 2.9
  Lactate: 8.9
  Total VFA: 102.6
[3]; [9]
  Acet:Prop: 2.8
  Lactate: 12.0
  Total VFA: 100.9
  pH: 6.17
[3]; [10]
  Acet:Prop: 3.3
  Lactate: 11.0
  Total VFA: 82.1
  pH: 6.33
[3]; [11]
  Acet:Prop: 3.5
  Lactate: 10.3
  Total VFA: 87.1
  pH: 6.40
[3]; [12]
  Acet:Prop: 3.6
  Lactate: 15.1
  Total VFA: 89.8
  pH: 6.43
[3]; even at 32 µg/ml
  control of lactic acid build-up: only partially controlled
[3]; even at the highest concentrations (approx 32 times the minimum effective dose of virginiamycin)
  control of lactic acid: failed to completely control lactic acid
[4]; Horse 1
  pH: 5.12
[4]; [13]
  L-lactate: 19.8 mmol/L
[4]; Horse 2
  pH: 4.57
[4]; [14]
  L-lactate: 67.9 mmol/L
[4]; Horse 3
  pH: 4.75
[4]; [15]
  L-lactate: 34.5 mmol/L
[4]; Horse 4
  pH: 5.15
[4]; [16]
  L-lactate: 20.0 mmol/L
[4]; Mean of 4 horses
  L-lactate: 35.5 mmol/L
  pH: 4.90
[5]; animals given avoparcin
  Lactic acid concentrations, large colon digesta versus caecal contents: appreciably lower in the large colon digesta
[5]; horse 2
  D-lactic acid, caecum: 33 mmol/L
  D-lactic acid, large colon: 2 mmol/L
  L-lactic acid, large colon: 2 mmol/L
  Lameness (Obel grade): Obel 2
[5]; horse 4
  D-lactic acid, caecum: 34 mmol/L
  D-lactic acid, large colon: 11 mmol/L
  L-lactic acid, large colon: 10 mmol/L
  Lameness (Obel grade): Obel 2
[5]; in vivo
  concentrations of the antibiotic, caecum versus large colon: lower in the caecum than in the large colon
[5]; wheat slurry with and without avoparcin
  Lactic acid accumulation in the hind-gut and lameness: developed irrespective of the presence of avoparcin
sheep; sheep dosed with round wheat, Aitchison et al. (1986)
  control of lactic acid: particularly effective

## bacitracin zinc [Zn-bacitracin]
[6]; antibiotic 0.25 μg/ml
  L-lactate: 20.6 mmol/L
  pH: 5.64
[6]; antibiotic 0.50 μg/ml
  L-lactate: 17.8 mmol/L
  pH: 5.86
[6]; antibiotic 1.00 μg/ml
  L-lactate: 15.9 mmol/L
  pH: 5.68
[6]; antibiotic 2.00 μg/ml
  L-lactate: 14.7 mmol/L
  pH: 5.59
[4]; Horse 1
  pH: 4.91
[4]; [13]
  L-lactate: 26.8 mmol/L
[4]; Horse 2
  pH: 4.59
[4]; [14]
  L-lactate: 62.5 mmol/L
[4]; Horse 3
  pH: 4.76
[4]; [15]
  L-lactate: 35.1 mmol/L
[4]; Horse 4
  pH: 5.11
[4]; [16]
  L-lactate: 22.2 mmol/L
[4]; Mean of 4 horses
  L-lactate: 36.6 mmol/L
  pH: 4.84

## flavomycin (bambermycin)
[3]; [7]
  pH: 6.57
[3]; [8]
  Acet:Prop: 3.4
  Lactate: 0.0
  Total VFA: 88.9
[3]; [9]
  Acet:Prop: 4.6
  Lactate: 0.0
  Total VFA: 93.7
  pH: 6.52
[3]; [10]
  Acet:Prop: 5.7
  Lactate: 0.0
  Total VFA: 90.0
  pH: 6.48
[3]; [11]
  Acet:Prop: 5.8
  Lactate: 0.0
  Total VFA: 85.6
  pH: 6.47
[3]; [12]
  Acet:Prop: 5.8
  Lactate: 0.2
  Total VFA: 93.7
  pH: 6.41
[3]; at concentrations as low as 2 g/ml
  control of lactic acid build-up: total control
[6]; antibiotic 0.25 μg/ml
  L-lactate: 12.4 mmol/L
  pH: 5.69
[6]; antibiotic 0.50 μg/ml
  L-lactate: 7.3 mmol/L
  pH: 5.67
[6]; antibiotic 1.00 μg/ml
  L-lactate: 9.9 mmol/L
  pH: 5.67
[6]; antibiotic 2.00 μg/ml
  L-lactate: 11.7 mmol/L
  pH: 5.56
[4]; Horse 1
  pH: 4.88
[4]; [13]
  L-lactate: 31.8 mmol/L
[4]; Horse 2
  pH: 4.54
[4]; [14]
  L-lactate: 55.6 mmol/L
[4]; Horse 3
  pH: 4.98
[4]; [15]
  L-lactate: 17.9 mmol/L
[4]; Horse 4
  pH: 5.07
[4]; [16]
  L-lactate: 23.7 mmol/L
[4]; Mean of 4 horses
  L-lactate: 32.2 mmol/L
  pH: 4.86

## thiopeptin
sheep; sheep, Muir et al (1980)
  control of wheat-induced acidosis: control of wheat-induced acidosis
